Data taken from ChEMBL document CHEMBL1127587, “Modeling the anticarcinogenic action of retinoids by making use of the OASIS method. 3. Inhibition of the induction of ornithine decarboxylase by arotinoids” (J Med Chem, 1994).

assay: Tested for experimental arotinoid inhibitory dose

Row | Compound | -Log ID50
1 | C/C(=C(/F)c1ccc(C(=O)O)cc1)c1cc2c(s1)CCCC2(C)C | 9.22
2 | C/C(=C\c1ccc(C(=O)O)cc1)c1ccc2c(C)c(C)c(C)c(C)c2c1 | 8.8
3 | C/C(=C\c1ccc(C(=O)O)cc1)c1cc2c(s1)CCCC2(C)C | 10
4 | C/C(=C\c1ccc(C(=O)O)cc1)c1ccc(SCCC(C)C)cc1 | 6.77
5 | C/C(=C\c1ccc(C(=O)O)cc1)c1ccc2c(c1)C1CCC2C1 (stereo not given) | 8.51
6 | C/C(=C\c1ccc(C(=O)O)cc1)c1ccc2ccc(C)c(C)c2c1 | 6.7
7 | COc1ccc(/C(C)=C/c2ccc(C(=O)O)cc2)cc1C(C)(C)C | 9.4
8 | C/C(=C(/F)c1ccc(C(=O)O)cc1)c1ccc2c(c1)C(C)(C)CCC2(C)C | 10.1
9 | CC1(C)CCC(C)(C)c2cc3cc(-c4ccc(C(=O)O)cc4)ccc3cc21 | 10.15

The remaining lines, values ahead:

Row | -Log ID50 | Compound
10 | 8.96 | C/C(=C\c1ccc(C(=O)O)cc1)c1ccc2c(c1)C(C)(C)CCC2
11 | 9.22 | C/C(=C\c1ccc(C(=O)O)cc1)c1ccc2c(c1)SCCC2(C)C
12 | 8.57 | C/C(=C\c1ccc(C(=O)O)cc1)c1ccc2c(c1)C(C)(C)CCO2
13 | 10.22 | C/C(=C\c1ccc(C(=O)O)cc1)c1ccc2c(c1)C(C)(C)CC[C@H]2C
14 | 10.52 | C/C(=C\c1ccc2c(c1)C(C)(C)CCC2(C)C)c1ccc(C(=O)O)cc1
15 | 9.22 | C/C(=C\c1ccc2c(c1)C(C)(C)CCS2)c1ccc(C(=O)O)cc1
16 | 9.22 | C/C(=C\c1ccc(C(=O)O)cc1)c1ccc2c(c1)CCCC2(C)C
17 | 9.3 | C/C(=C\c1ccc(C(=O)O)cc1)c1ccc2c(c1)C(C)(C)CCS2
18 | 10.3 | C/C(=C\c1ccc(C(=O)O)cc1)c1ccc2c(c1)C(C)(C)CC[C@@H]2C
19 | 10.52 | C/C(=C\c1ccc(C(=O)O)cc1)c1ccc2c(c1)C(C)(C)CCC2(C)C
20 | 10.15 | C/C(=C\c1ccc(C(=O)O)cc1)c1ccc2c(c1)C(C)(C)CCC2C (stereo not given)
